{"source": "patent US20210403485A1", "about": "“PYRAZOLOPYRIMIDINE DERIVATIVE AS SELECTIVE TRK INHIBITOR” (SHANDONG LUYE PHARMACEUTICAL CO., LTD., priority 2018, published 2021)", "target": "T1, TrkA-G667C (Homo sapiens, UniProt P04629, G667C)", "T1 construct": "purchased Reaction Biology Corp", "T1 sequence (P04629 33-796 G667C)": "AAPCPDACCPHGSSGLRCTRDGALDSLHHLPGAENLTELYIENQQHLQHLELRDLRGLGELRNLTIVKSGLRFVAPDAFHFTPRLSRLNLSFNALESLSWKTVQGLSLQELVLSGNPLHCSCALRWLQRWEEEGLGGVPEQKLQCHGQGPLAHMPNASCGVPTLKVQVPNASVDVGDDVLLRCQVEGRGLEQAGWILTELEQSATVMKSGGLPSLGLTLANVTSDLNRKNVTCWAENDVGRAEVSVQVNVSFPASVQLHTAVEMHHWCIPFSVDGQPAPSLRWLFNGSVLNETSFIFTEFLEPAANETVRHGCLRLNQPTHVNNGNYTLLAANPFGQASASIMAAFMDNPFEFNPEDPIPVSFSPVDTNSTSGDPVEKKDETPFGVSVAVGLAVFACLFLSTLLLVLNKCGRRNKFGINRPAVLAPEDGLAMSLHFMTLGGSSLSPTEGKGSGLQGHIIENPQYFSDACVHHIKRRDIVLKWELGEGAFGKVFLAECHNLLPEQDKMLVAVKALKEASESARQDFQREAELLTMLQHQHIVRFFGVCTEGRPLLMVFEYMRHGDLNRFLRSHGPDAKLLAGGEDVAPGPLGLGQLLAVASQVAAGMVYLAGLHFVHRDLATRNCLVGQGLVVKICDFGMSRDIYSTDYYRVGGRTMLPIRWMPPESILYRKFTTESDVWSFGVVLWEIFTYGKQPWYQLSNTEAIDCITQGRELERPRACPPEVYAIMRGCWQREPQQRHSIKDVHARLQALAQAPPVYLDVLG", "assay": "Kinase inhibitory activity (33P-ATP, filtration-binding method, Reaction Biology Corp.)", "format": "biochemical", "in_short": "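Radiometric kinase assay: enzyme-compound mixture preincubated 20 minutes at room temperature, then reaction started with ^33P-ATP and run 120 minutes at room temperature. Filtration-binding readout. Activity expressed relative to DMSO control; IC50 from fitted dose-response curves.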", "data": [{"smiles": "O=C1NC2(CC2)COc2ncc(F)cc2C2COCCN2c2ccn3ncc1c3n2", "note": "(single isomer, unassigned) [WX001B]", "values": [{"measurement": "IC50", "result": 2.3, "unit": "nM"}]}]}
